# Key:
# [1] = test system: LPS-induced sepsis; experiment: Animal model with LPS-induced sepsis; format: in vivo, ICR mice; details: LPS (S. marcenes) 2 mg/kg then 10 mg/kg
# Procedure: The effect of the inventive composition (thio-Cl-IB-MECA) in an animal model with LPS-induced sepsis was tested. S. marcenes-derived LPS used in the test is known to be strongly pathogenic compared to E. coli-derived LPS. First, LPS was administered at low dose to attenuate an immune response in animals, and after a given time, it was administered at high dose to rapidly induce sepsis and septic shock. Specifically, ICR mice (20-25 g, male) were divided into the following 5 groups, each consisting of 6 mice: a normal group not treated with any substance; a control group administered with only saline; groups administered with the inventive composition (200 and 500 μg/kg of thio-Cl-IB-MECA); and a group administered with the conventional A3 adenosine receptor agonist (500 μg/kg IB-MECA). 30 minutes administration of these drugs, a solution of 2 mg/kg LPS (S. marcenes) in saline was administered intraabdominally. After 20 hours, the drug was administered again, and 30 minutes, LPS (S. marcenes) was administered again at a dose of 10 mg/kg. The mice were observed hourly up to 6 hours after the second stimulation, and the survival rate was observed up to 7 days after the second stimulation. The effect of the inventive composition (thio-Cl-IB-MECA) was compared with the effect of the prior A3 adenosine receptor agonist (IB-MECA), and the effects of the inventive composition (thio-Cl-IB-MECA) at different doses (200 and 500 μg/kg) were compared with each other.
# The change in bodyweight was measured before the start of the test, before the second administration of the drug, and 7 days after the second administration.
# [2] = test system: LNCaP (androgen receptor dependent); experiment: SRB assay, growth of LNCaP cells; format: cell-based, human; details: for IC50: SRB, 3 days
# Procedure: (§1) In order to examine the inhibitory effects on the growth of the human prostate cancer cells LNCaP (androgen receptor dependent) and PC-3 (androgen receptor independent), a sulforhodamine B (SRB) assay was performed.
# (§2) 10 μL of a solution of thio-Cl-IB-MECA in 10% dimethylsulfoxide (DMSO) was loaded in each well of a 96-well plate in triplicate at concentrations of 50, 25, 12.5 and 6.25 μM, thus making a test plate. Cells were diluted to a density of 6×10^4 cells/ml with 10% FBS-containing RPMI 1640 medium supplemented with antibiotics-antimycotics, and 190 μL of the cell suspension was added to each well so as to reach a total volume of 200 μL and was cultured in a 5% CO2 incubator at 37° C. for 3 days. At the same time, 190 μL of the same cell suspension was loaded into each of 16 wells or more of a fresh 96-well plate containing no sample (thio-Cl-IB-MECA) and was cultured in a 5% CO2 incubator at 37° C. for 30 minutes, thereby determining reference date. After the culture, 50 μL of 50% trichloroacetic acid (TCA) was added to each well, and the cells were fixed by culture at 4° C. for 1 hour. Then, the well plate was washed five times with tap water and dried. 100 μL of 1% acetic acid solution containing […] sulforhodamine B (SRB) was added to each well to stain the cells, and the well plate was allowed to stand at room temperature for 1 hour. After the well plate has been washed five times with 1% acetic acid and sufficiently dried, 200 μL of 100 mM Tris-base was added to each well, and the bound staining liquid was dissolved and sufficiently shaken in a shaker. Then, the absorbance at 515 nm was measured using an ELISA microplate reader. Based on the measured absorbance, the cell viability of the test group relative to the control group was calculated using the following equation 2, and based on the viability at each concentration, the IC50 value of the sample was calculated using TableCurve program: […]
# [3] = test system: PC-3 (androgen receptor independent); experiment: SRB assay, growth of PC-3 cells; format: cell-based, human; details: for IC50: SRB, 3 days
# Procedure: as §1, §2
# [4] = test system: prostate cancer cell line PC-3; experiment: Anticancer activity in PC-3 tumor-transplanted nude mice; format: in vivo; details: for tumor production inhibitory activity relative to the control group: 2 mg/kg orally every day for 35 days
# Procedure: Based on the anticancer activity of thio-Cl-IB-MECA against prostate cancer cells, proven by the in vitro test, the anticancer activity of thio-Cl-IB-MECA was measured by an animal test. The prostate cancer cell line PC-3 was transplanted subcutaneously into nude mice, and when the tumor size reached 150-200 mm^3 after 8 days, the drug thio-Cl-IB-MECA (0.02, 0.2 and 2 mg/kg), thio-IB-MECA (2 mg/kg) or IB-MECA (2 mg/kg) was administered orally every day for 35 days. The tumor size was measured at intervals of 3-5 days. The tumor volume was measured using the following equation 3.
# Tumor volume=abc×π/6 [Equation 3]
# wherein a represents the longer diameter of the tumor, b represents the shorter diameter of the tumor, and c represents the height of the tumor.
# [5] = test system: human colorectal cancer HCT 116 cells; experiment: Anticancer activity in nude mice transplanted with HCT 116 cells; format: in vivo, nude mice (Balb/c-nu/nu mice); details: for side effects (such as a change in bodyweight) during the test period: 0.02, 0.2 and 2 mg/kg orally for 21 days
# Procedure: HCT 116 cells were prepared at a concentration of 2×10^6 cells/200 μl (RPMI) and administered subcutaneously into the right frank of 6-week-old female nude mice (Balb/c-nu/nu mice). The tumor size was measured with calipers, and the tumor size reached about 100 mm^3, 20 mice having substantially the same tumor size were divided into a control group and three sample-treated groups. The three sample-treated group were administered orally with IB-MECA at doses of 0.02, 0.2 and 2 mg/kg, respectively, for 21 days. In the control group and the sample-treated groups, the bodyweight was measured once every week, and the tumor size was measured at intervals of 3-4 days. The tumor volume was measured using equation 3 above. In the equation, a represents the longer diameter of the tumor, b represents the shorter diameter of the tumor, and c represents the height of the tumor.
# Anticancer activity was measured by an animal test in the same manner as Example 20, except that 6-week-old female nude mice were administered with Cl-IB-MECA in place of IB-MECA as a sample.
# Anticancer activity was measured by an animal test in the same manner as Example 20, except that 6-week-old female nude mice were administered with thio-Cl-IB-MECA in place of IB-MECA as a sample.
compound,measurement,setting,value
CNC(=O)[C@H]1O[C@@H](n2cnc3c(NCc4cccc(I)c4)ncnc32)[C@H](O)[C@@H]1O [IB-MECA],survival rate after 1 day,[1]; 500 μg/kg,66.7%
same,cell viability in LNCaP,[2]; 50 μM (highest concentration),54%
same,IC50,[2],54.2 µM
same,cell viability in PC-3,[3]; 50 μM (highest concentration),63%
same,IC50,[3],97.1 µM
same,tumor production inhibitory activity relative to the control group,[4],about 45.9%
same,inhibition rate of tumor growth,[5]; 0.02 mg/kg orally for 21 days,20.7%
same,inhibition rate of tumor growth,[5]; 0.2 mg/kg orally for 21 days,48.7%
same,inhibition rate of tumor growth,[5]; 2 mg/kg orally for 21 days,58.6%
same,side effects (such as a change in bodyweight) during the test period,[5],survived healthfully without particular side effects
"CNC(=O)[C@H]1S[C@@H](n2cnc3c(NCc4cccc(I)c4)nc(Cl)nc32)[C@H](O)[C@@H]1O [thio-Cl-IB-MECA, 2-chloro-N^6-(3-iodobenzyl)-4′-thioadenosine-5′-N-methyluronamide]",survival rate after 1 day,[1]; 200 μg/kg,71.4%
same,survival rate after 1 day,[1]; 500 μg/kg,66.7%
same,IC50,[2],18.6 µM
same,IC50,[3],20.4 µM
same,tumor production inhibitory activity relative to the control group,[4],82.6%
same,tumor production as a function of dose,"[4]; 0.02, 0.2 and 2 mg/kg orally every day for 35 days",inhibited tumor production in a concentration-dependent manner
same,inhibition rate of tumor growth,[5]; 0.02 mg/kg orally for 21 days,16.1%
same,inhibition rate of tumor growth,[5]; 0.2 mg/kg orally for 21 days,54.4%
same,inhibition rate of tumor growth,[5]; 2 mg/kg orally for 21 days,62.1%
same,side effects (such as a change in bodyweight) during the test period,[5],survived healthfully without particular side effects
